Results published in article PMC8069897, “A Targeted-Covalent Inhibitor of 17β-HSD1 Blocks Two Estrogen-Biosynthesis Pathways: In Vitro (Metabolism) and In Vivo (Xenograft) Studies in T-47D Breast Cancer Models” (Cancers, 2021).

Target: T1, 17β-hydroxysteroid dehydrogenase type 1 (17β-HSD1) (Homo sapiens, UniProt P14061)
T1 construct: gene HSD17B1
T1 sequence (P14061 2-328): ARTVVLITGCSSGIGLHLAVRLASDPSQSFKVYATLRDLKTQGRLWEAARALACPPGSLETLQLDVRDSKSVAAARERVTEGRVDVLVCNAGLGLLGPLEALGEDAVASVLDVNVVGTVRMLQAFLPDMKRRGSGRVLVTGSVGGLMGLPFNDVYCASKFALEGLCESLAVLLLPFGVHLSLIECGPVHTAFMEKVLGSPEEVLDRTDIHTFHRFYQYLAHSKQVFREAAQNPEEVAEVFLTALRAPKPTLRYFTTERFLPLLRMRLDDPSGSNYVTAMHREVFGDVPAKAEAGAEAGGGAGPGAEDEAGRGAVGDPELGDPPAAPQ
Assay: inhibition of […]-DHEA to […]-5-diol conversion in intact T-47D cells (endogenous […]β-HSD1), TLC
Format: cell-based

Structure (SMILES): C[C@]12CC[C@@H]3c4ccc(CCBr)cc4CC[C@H]3[C@@H]1C[C@H](Cc1cccc(C(N)=O)c1)[C@@H]2O [PBRM]
- IC50: 770 nM
